According to patent publication US5763597A, “Orally active adenosine kinase inhibitors” (priority 1996, dated 1998):

Assays:
[1] = tested on: liver enzymes and total bilirubin in female SA rats; test: Liver toxicity (serum liver enzymes and bilirubin); assay type: in vivo; settings: rat, 2 x 37.5 μmole/kg iv infusion, 12 h after second dose; for Total Bilirubin: vehicle 0.10 ±0.04; for SGPT: vehicle 80 ±10; for SGOT: vehicle 102 ±12; for Alkaline Phosphatase: vehicle 140 ±50
Description: Female SA rats (150-200 g) were anesthetized with halothane and a chronic catheter was placed in the internal jugular vein. The animals were allowed to recover for 3 days. […] Twelve hours later, an additional 37.5 μmole/kg was infused over 40 minutes (total dose=75 μmole/kg). Twelve hours after the second dose, the animals were anesthetized with halothane and exsanguinated through the descending aorta. Liver enzymes (serum glutamic-oxaloacetic transaminase (SGOT), serum glutamic-pyruvic transaminase (SGPT), alkaline phosphatase) and total bilirubin in the serum samples were determined by a commercial laboratory.

adenosine kinase = test: AK inhibition (adenosine kinase activity, [U-14C] adenosine); assay type: biochemical, partially purified pig heart or recombinant human; settings: 0.5 μM adenosine, 1 mM ATP, pH 7.0, 20 min; pig heart or recombinant human enzyme
Description: Adenosine kinase activity was measured essentially as described by Yamada et al. Biochim. Biophys. Acta 660, 3643 (1988) with a few minor modifications. Assay mixtures contained 50 mM TRIS-maleate buffer, pH 7.0, 0.1% BSA, 1 mM ATP 1 mM MgCl2, 0.5 μM [U-^14 C] adenosine (400-600 mCi/mmol) and varying duplicate concentrations of inhibitor. […] The amount of ^14 C-AMP was quantified by scintillation counting.

[2] = tested on: carrageenan paw swelling in rats; test: Anti-inflammatory activity, carrageenan paw swelling; assay type: in vivo; settings: rat, swelling after 3 hours; for Carrageenan Paw (% inh) ip: 10 mg/kg ip, 30 min before carrageenan; for Carrageenan Paw (% inh) po: 10 mg/kg po, 1 h before carrageenan
[3] = tested on: formalin-induced pain in rats; test: Analgesic activity, formalin paw model; assay type: in vivo; settings: rat, oral, 20 mg/kg; for % Inhibition Phase 1 Composite score: Phase 1 (1.7-5 min post-formalin); for % Inhibition Phase 2 Composite score: Phase 2 (10.3-30 min post-formalin); for % Inhibition Phase 2 Licking/biting: Phase 2, licking/biting incidences
From the text: Pharmacol. Exper. Ther., 250:3, 915-922 (1989). See also, Life Sciences 51:171-76 (1992). These models measure pain avoidance and tolerance in response to a regulated stimulus, and compare the response of animals before and after they are given test compound. Formalin Paw Assay In this assay, injection of formalin, an irritant, into the hindpaw of rats typically evokes a biphasic response of pain-related behaviors. […] Phase I behavior is thought to be a direct effect of the irritant on nociceptors at the injection site while phase 2 behavior is thought to include a hyperalgesic component mediated by sensitization of neuronal elements within the spinal cord. Studies from other laboratories have found the first portion of Phase 2 (sometimes referred to as Phase 2a) to be most responsive to pharmacological manipulation. Rats (male, Simonsen) weighing between 100-200 g, are used in the present experiments. For screening purposes drugs are administered orally 90 min prior to initiation of formalin test. […] The rat is then immediately placed in a separate plexiglass box and scoring (described below) of the animal's behavior is begun at 1.7 min after formalin injection. […] This sequence is repeated over a 30 min period. […] Scores are continuously recorded directly onto an Excel spreadsheet.

[4] = tested on: maximal electroshock seizures (hind limb tonic extension) in male SA rats; test: Anticonvulsant activity, maximal electroshock (MES) model; assay type: in vivo; settings: rat, ip; ">5" = HTE inhibited in fewer than 50% of animals at 5 mg/kg screen; ">>" (written >) = no activity, "<" = maximal activity at stated dose; read-out: Anticonvulsant ED50 (MES) ip

C[C@H]1O[C@@H](n2cc(I)c3c(N)ncnc32)[C@H](O)[C@@H]1O [REF. A, reference compound]
Total Bilirubin [1]: 0.76 mg/dL
SGPT [1]: 76 IU/L

NC[C@H]1O[C@@H](n2nc(Br)c3c(N)ncnc32)[C@H](O)[C@@H]1O [REF. B, 4amino-1-(5-amino-5-deoxy-1-D-ribofuranosyl)-3-bromopyrazolo[3,4d]pyrimidine, reference compound]
Total Bilirubin [1]: 0.30 mg/dL
SGPT [1]: 41 IU/L
SGOT [1]: 100 IU/L

C[C@H]1O[C@@H](n2cc(-c3ccccc3)c3c(Nc4cc(F)cc(F)c4)ncnc32)[C@H](O)[C@@H]1O [compound 10]
IC50 (adenosine kinase): 1 nM

C[C@H]1O[C@@H](n2cc(-c3ccccc3)c3c(Nc4ccc(F)c(F)c4)ncnc32)[C@H](O)[C@@H]1O [compound 11]
IC50 (adenosine kinase): 4 nM

COc1ccc(Nc2ncnc3c2c(-c2ccccc2)cn3[C@@H]2O[C@H](C)[C@@H](O)[C@H]2O)cc1 [compound 13]
IC50 (adenosine kinase): 6 nM

C[C@H]1O[C@@H](n2cc(-c3cccc(Cl)c3)c3c(Nc4ccccc4)ncnc32)[C@H](O)[C@@H]1O [compound 15]
IC50 (adenosine kinase): 16 nM

Cc1ccc(-c2cn([C@@H]3O[C@H](C)[C@@H](O)[C@H]3O)c3ncnc(Nc4ccccc4)c23)cc1 [compound 16]
IC50 (adenosine kinase): 9 nM

C[C@H]1O[C@@H](n2cc(-c3ccccc3)c3c(Nc4cccc(Cl)c4)ncnc32)[C@H](O)[C@@H]1O [compound 17]
IC50 (adenosine kinase): 17 nM

Cc1cccc(Nc2ncnc3c2c(-c2ccccc2)cn3[C@@H]2O[C@H](C)[C@@H](O)[C@H]2O)c1 [compound 18]
IC50 (adenosine kinase): 4 nM

C[C@H]1O[C@@H](n2cc(-c3ccccc3)c3c(Nc4cccc(F)c4)ncnc32)[C@H](O)[C@@H]1O [compound 19]
IC50 (adenosine kinase): 2 nM

C[C@H]1O[C@@H](n2cc(-c3ccccc3)c3c(Nc4ccc(O)cc4)ncnc32)[C@H](O)[C@@H]1O [compound 20]
IC50 (adenosine kinase): 32 nM

C[C@H]1O[C@@H](n2cc(-c3ccc(F)cc3)c3c(Nc4ccccc4)ncnc32)[C@H](O)[C@@H]1O [compound 24]
Carrageenan Paw (% inh) ip [2]: 35.6 % inh
Carrageenan Paw (% inh) po [2]: 21.3 % inh
IC50 (adenosine kinase): 1 nM

COc1ccc(-c2cn([C@@H]3O[C@H](C)[C@@H](O)[C@H]3O)c3ncnc(Nc4ccc(F)cc4)c23)cc1 [compound 25]
% Inhibition Phase 1 Composite score [3]: 88.4%
% Inhibition Phase 2 Composite score [3]: 91.9%
% Inhibition Phase 2 Licking/biting [3]: 100%
IC50 (adenosine kinase): 10 nM

CCOc1ccc(Nc2ncnc3c2c(-c2ccccc2)cn3[C@@H]2O[C@H](C)[C@@H](O)[C@H]2O)cc1 [compound 28]
Carrageenan Paw (% inh) ip [2]: 22.2 % inh
Carrageenan Paw (% inh) po [2]: 31.0 % inh
% Inhibition Phase 1 Composite score [3]: 22.5%
% Inhibition Phase 2 Composite score [3]: 46.8%
% Inhibition Phase 2 Licking/biting [3]: 83%
IC50 (adenosine kinase): 4 nM

CCc1ccc(Nc2ncnc3c2c(-c2ccccc2)cn3[C@@H]2O[C@H](C)[C@@H](O)[C@H]2O)cc1 [compound 29]
Carrageenan Paw (% inh) ip [2]: 46.1 % inh
Carrageenan Paw (% inh) po [2]: 10.7 % inh
IC50 (adenosine kinase): 20 nM

C[C@H]1O[C@@H](n2cc(-c3cccc([N+](=O)[O-])c3)c3c(Nc4ccc(F)cc4)ncnc32)[C@H](O)[C@@H]1O [compound 30]
IC50 (adenosine kinase): 28 nM

COc1ccc(-c2cn([C@@H]3O[C@H](C)[C@@H](O)[C@H]3O)c3ncnc(Nc4ccc(C(N)=O)cc4)c23)cc1 [compound 31]
Carrageenan Paw (% inh) ip [2]: 17.2 % inh
Carrageenan Paw (% inh) po [2]: 0 % inh
IC50 (adenosine kinase): 2 nM

C[C@H]1O[C@@H](n2cc(-c3ccccc3)c3c(NCc4ccccc4)ncnc32)[C@H](O)[C@@H]1O [compound 38]
IC50 (adenosine kinase): 30 nM

CSc1ccc(Nc2ncnc3c2c(-c2ccccc2)cn3[C@@H]2O[C@H](C)[C@@H](O)[C@H]2O)cc1 [compound 40]
IC50 (adenosine kinase): 2 nM

C[C@H]1O[C@@H](n2c(Br)c(-c3ccccc3)c3c(Nc4ccc(F)cc4)ncnc32)[C@H](O)[C@@H]1O [compound 41]
IC50 (adenosine kinase): 42 nM

C[C@H]1O[C@@H](n2cc(-c3ccccc3)c3c(Nc4ccc(N)cc4)ncnc32)[C@H](O)[C@@H]1O [compound 43]
ED50 [4]: 5 mg/kg
IC50 (adenosine kinase): 3 nM

C[C@H]1O[C@@H](n2nc(-c3ccccc3)c3c(Nc4ccccc4)ncnc32)[C@H](O)[C@@H]1O [compound 86]
IC50 (adenosine kinase): 4.5 nM

[N-]=[N+]=NC[C@H]1O[C@@H](n2nc(-c3ccccc3)c3c(Nc4ccccc4)ncnc32)[C@H](O)[C@@H]1O [compound 87]
IC50 (adenosine kinase): 4.5 nM

OC[C@H]1O[C@@H](n2nc(-c3ccccc3)c3c(Nc4ccccc4)ncnc32)[C@H](O)[C@@H]1O [compound 88]
IC50 (adenosine kinase): 5 nM

COc1ccc(Nc2ncnc3c2c(-c2ccccc2)nn3[C@@H]2O[C@H](C)[C@@H](O)[C@H]2O)cc1 [compound 89]
IC50 (adenosine kinase): 17 nM

COc1ccc(Nc2ncnc3c2c(-c2ccccc2)nn3[C@@H]2O[C@H](CN=[N+]=[N-])[C@@H](O)[C@H]2O)cc1 [compound 90]
IC50 (adenosine kinase): 8 nM

C[C@H]1O[C@@H](n2nc(-c3ccccc3)c3c(Nc4ccc(Cl)cc4)ncnc32)[C@H](O)[C@@H]1O [compound 91]
IC50 (adenosine kinase): 11 nM

[N-]=[N+]=NC[C@H]1O[C@@H](n2nc(-c3ccccc3)c3c(Nc4ccc(Cl)cc4)ncnc32)[C@H](O)[C@@H]1O [compound 92]
IC50 (adenosine kinase): 17 nM

Cc1ccc(-c2nn([C@@H]3O[C@H](CN=[N+]=[N-])[C@@H](O)[C@H]3O)c3ncnc(Nc4ccccc4)c23)cc1 [compound 93]
IC50 (adenosine kinase): 20 nM

COc1ccc(-c2nn([C@@H]3O[C@H](CN=[N+]=[N-])[C@@H](O)[C@H]3O)c3ncnc(Nc4ccccc4)c23)cc1 [compound 94]
IC50 (adenosine kinase): 3 nM

COc1ccc(-c2nn([C@@H]3O[C@H](CN=[N+]=[N-])[C@@H](O)[C@H]3O)c3ncnc(Nc4ccc(C)cc4)c23)cc1 [compound 95]
IC50 (adenosine kinase): 7 nM

[N-]=[N+]=NC[C@H]1O[C@@H](n2nc(-c3ccc(Cl)cc3)c3c(Nc4ccccc4)ncnc32)[C@H](O)[C@@H]1O [compound 96]
IC50 (adenosine kinase): 15 nM

CCOCc1ccc(Nc2ncnc3c2c(-c2ccccc2)cn3[C@@H]2O[C@H](C)[C@@H](O)[C@H]2O)cc1 [compound 125]
Carrageenan Paw (% inh) ip [2]: 24.4 % inh
Carrageenan Paw (% inh) po [2]: 0.0 % inh
IC50 (adenosine kinase): 2 nM

C[C@H]1O[C@@H](n2cc(-c3ccccc3)c3c(Nc4ccc(CC#N)cc4)ncnc32)[C@H](O)[C@@H]1O [compound 126]
IC50 (adenosine kinase): 1 nM

C[C@H]1O[C@@H](n2cc(-c3ccccc3)c3c(Nc4ccc(I)cc4)ncnc32)[C@H](O)[C@@H]1O [compound 128]
Carrageenan Paw (% inh) ip [2]: 18.9 % inh
Carrageenan Paw (% inh) po [2]: 0.0 % inh
IC50 (adenosine kinase): 4 nM

C[C@H]1O[C@@H](n2cc(-c3ccccc3)c3c(Nc4ccc(NC(=O)C(F)(F)F)cc4)ncnc32)[C@H](O)[C@@H]1O [compound 129]
Total Bilirubin [1]: 0.52 mg/dL
SGPT [1]: 54 IU/L
SGOT [1]: 162 IU/L
Alkaline Phosphatase [1]: 110 IU/L
Carrageenan Paw (% inh) ip [2]: 48.9 % inh
Carrageenan Paw (% inh) po [2]: 35.7 % inh
IC50 (adenosine kinase): 2 nM

C[C@H]1O[C@@H](n2cc(-c3cccc(N)c3)c3c(Nc4ccc(F)cc4)ncnc32)[C@H](O)[C@@H]1O [compound 131]
Total Bilirubin [1]: 0.10 mg/dL
SGPT [1]: 65 IU/L
SGOT [1]: 120 IU/L
Alkaline Phosphatase [1]: 169 IU/L
Carrageenan Paw (% inh) ip [2]: 44.2 % inh
Carrageenan Paw (% inh) po [2]: 15.9 % inh
IC50 (adenosine kinase): 3 nM

C[C@H]1O[C@@H](n2cc(-c3ccc(C#N)cc3)c3c(Nc4ccc(F)cc4)ncnc32)[C@H](O)[C@@H]1O [compound 132]
IC50 (adenosine kinase): 10 nM

C[C@H]1O[C@@H](n2cc(-c3ccc(CNC(N)=O)cc3)c3c(Nc4ccc(F)cc4)ncnc32)[C@H](O)[C@@H]1O [compound 197]
Carrageenan Paw (% inh) ip [2]: 16.3 % inh
Carrageenan Paw (% inh) po [2]: 21.5 % inh
